Results from patent US7964587B2, “Tocopherol and tocotrienol aerosols” (Children's Hospital & Research Center at Oakland, priority 2002, dated 2011).
Where two headings read alike, the source gives them in different places. One block for each molecule: values may come before it.

What was measured:
[1] = test system: PGE2; experiment: inhibition of PGE2, apparent IC50s of vitamin E forms; assay type: cell-based; details: for inhibitory effect on PGE2: e.g. ref. 10
[2] = test system: carrageenan-induced inflammation; experiment: carrageenan-induced inflammation in the air-pouch model; assay type: in vivo, rat
Description: For this experimental protocol, we adapted the methods recited in the Experimental Example reported below. […] Formulations were administered as described below, wherein the recited tocopherol was dissolved in tocopherol-stripped corn oil, and continuously administrated by gavage for three days before the induction of inflammation. The PGE2 component of the formulation was empirically varied and adjusted to provide a minimized synergistic concentration. For example, aspirin formulations were adjusted to 50 or 100 mg/Kg with gamma-T at 30 mg/Kg. In controls evaluating the effects of aspim or gamma-T alone, we increased the aspririn dosage to 150 mg/Kg and gamma-T to […], respectively.
Gamma-CEHC was quantified essentially as previously described (13).
For the measurement of PGE2, LTB4 and 8-isoprostane, the exudate fluid was mixed vigorously with 2 mL methanol to precipitate proteins, and with 5 mL hexane to remove lipids. Following a brief centrifugation and aspiration of the hexane layer, the methanol layer was removed and evaporated under N2. PGE2, LTB4 and 8-isoprostane were measured using the corresponding ELISA kits from Cayman Chemicals (Ann Arbor, Mich.). TNF-a and lactate dehydrogenase (LDH) in the exudate were measured directly using an ELISA kit from R&D (Minneapolis, Minn.) and an analytical kit from Roche (Indianapolis, Ind.), respectively.
The total amount of nitrate and nitrite in the exudate was measured using the Model 280 nitric oxide analyzer (NOA™) (Sievers Instruments, Inc.; Boulder, Colo.). Nitrite and nitrate in the exudate were reduced by vanadium (III) to nitric oxide, which then was measured by a red-sensitive photomultiplier tube after being converted by ozone to chemiluminescent reactive nitrogen dioxide. Nitrite and nitrate were quantified based on a standard curve from nitrate that was established under the identical conditions.
Carrageenan-induced inflammation in the air-pouch model is commonly used to evaluate the pharmaceutical potency of anti-inflammatory drugs (14). […] These cells play a key role in the inflammatory response (11, 14, 15). A single injection of carrageenan caused a potent localized inflammation, as indicated by a marked increase in white cell infiltration, eicosanoid formation and tissue damages (11). To study the effect of gamma-CEHC on eicosanoid synthesis and neutrophil infiltration, it (1 mg/ml, 2 ml in PBS) was injected directly into the air pouch right before the injection of carrageenan. Since the retention of gamma-CEHC is relatively short (16), its effect was evaluated at 6 h after the induction of inflammation.
To test the effects of tocopherols, alpha-T or gamma-T, dissolved in tocopherol-stripped corn oil, was continuously administrated by gavage for three days before the induction of inflammation. Effects were evaluated at 20 h after carrageenan injection, when cell infiltration had reached a maximum in the pouch.

[3] = plasma and exudate concentrations of alpha-T, gamma-T and gamma-CEHC in the air-pouch model; details: for gamma-T concentration in the collected exudate: 20-h after carrageenan
Description: Carrageenan-induced inflammation in the air-pouch model was performed and evaluated substantially as previously described (14). Alpha-T and gamma-T were measured in plasma and exudate as previously described (12). Gamma-CEHC was quantified essentially as previously described (13).
To evaluate the relative bio-availability of the administrated compounds, we measured plasma and exudate concentrations of gamma-T and alpha-T as well as plasma gamma-CEHC.

[4] = test system: carrageenan-induced inflammation; details: cited from earlier work
[5] = test system: human prostate epithelial cancer cells; experiment: anti-proliferative effect on prostate cancer cells; assay type: cell-based
[6] = test system: lung epithelial cancer cells; experiment: anti-proliferative effect on lung cancer cells; assay type: cell-based, human
[7] = test system: normal epithelial cells; experiment: effect on normal epithelial cells; assay type: cell-based
[8] = cited from earlier work
[9] = 1 mg/ml, 2 ml in PBS injected into the air pouch, 6 h
[10] = 33 mg/kg by gavage for three days, 20 h after carrageenan, P<0.05

increased alpha-T level in the plasma and exudate ([3]; 33 mg/kg alpha-T): approximately 2 fold
decrease of gamma-T in the exudate caused by alpha-T administration ([3]; P<0.05): 40%
decrease of gamma-T in the plasma caused by alpha-T administration ([3]; P<0.05): ~55%
Molecule: Cc1c(C)c2c(c(C)c1O)CC[C@@](C)(CCC[C@H](C)CCC[C@H](C)CCCC(C)C)O2 [alpha-T, alpha-tocopherol, reference compound]
inhibitory effect on PGE2 [1]: weak to no inhibitory effect
effects on generation of eicosanoids and 8-isoprostane ([2]; 33 mg/kg): did not show any significant effects

IC50 [1]: 2.5 to 5 µM
Molecule: Cc1cc(O)cc2c1O[C@](C)(CCC[C@H](C)CCC[C@H](C)CCCC(C)C)CC2 [delta-T, Delta-tocopherol]

plasma concentration of gamma-CEHC ([3]; rat, in vivo): Nano-molar concentrations
plasma gamma-CEHC level relative to plasma gamma-T ([3]; rat, in vivo): less than 10%
Molecule: Cc1c(O)cc2c(c1C)OC(C)(CCC(=O)O)CC2 (centres unmarked) [gamma-CEHC, 2,7,8-trimethyl-2-(b-carboxyethyl)-6-hydroxychroman]
inhibition of LTB4 [2, 9]: inhibited LTB4 and neutrophil infiltration, though non-significantly
inhibition of neutrophil infiltration [2, 9]: inhibited LTB4 and neutrophil infiltration, though non-significantly
reduction of PGE2 in the pouch ([2]; 1 mg/ml, 2 ml in PBS injected into the air pouch, 6 h after induction, P<0.05): ~29%

IC50 [1]: 5 to 10 µM
elevation of gamma-T in exudate fluid vs corn-oil fed controls ([3]; 33 mg/kg): ~10 fold
gamma-T concentration in exudate, corresponding molar concentration ([3]; 33 mg/kg): ~10 µM
increase of gamma-T in the plasma vs corn-oil fed controls ([3]; 33 mg/kg): 3 fold
ratio of gamma-T to alpha-T in the exudate ([3]; 33 mg/kg gamma-T): ~0.3
gamma-T concentration in the collected exudate ([3]; 33 mg/kg): 93.3 nmol/gprotein
elevation of gamma-T in exudate fluid vs corn-oil fed controls ([3]; 100 mg/kg): ~20 fold
gamma-T concentration in exudate, corresponding molar concentration ([3]; 100 mg/kg): ~20 µM
increase of gamma-T in the plasma vs corn-oil fed controls ([3]; 100 mg/kg): 5 fold
ratio of gamma-T to alpha-T in the exudate ([3]; 100 mg/kg gamma-T): ~0.7
gamma-T concentration in the collected exudate ([3]; 100 mg/kg): 193 nmol/gprotein
ratio of gamma-T to alpha-T in the plasma ([3]; 33 or 100 mg/kg gamma-T): ~0.15
effect of gamma-T administration on alpha-T levels ([3]; rat, in vivo): did not significantly affect
Molecule: Cc1c(O)cc2c(c1C)O[C@](C)(CCC[C@H](C)CCC[C@H](C)CCCC(C)C)CC2 [gamma-T, gamma-tocopherol]
anti-proliferative effect [5]: showed anti-proliferative effects
anti-proliferative effect [6]: showed anti-proliferative effects
effect on normal epithelial cells [7]: had no effect
effect on total nitrate and nitrite ([2]; 33 mg/kg): had no effect
reduction of LTB4 [2, 10]: 70%
reduction of PGE2 [2, 10]: 46%
reduction of 8-isoprostane in the pouch (lipid peroxidation) ([2]; 33 mg/kg, P<0.05): ~57%
attenuation of the loss of food consumption ([2]; 33 mg/kg, non-significant, P=0.2): 20%
inhibition of TNF-a ([2]; 33 mg/kg, non-significant, P=0.29): ~51%
inhibitory potency against PGE2 ([2]; 100 mg/kg by gavage for three days, 20 h, P<0.05): 51%
attenuation of the loss of food consumption ([2]; 100 mg/kg, P<0.03): 30%
reduction of 8-isoprostane in the pouch (lipid peroxidation) ([2]; 100 mg/kg, P<0.05): ~57%
lowering of LDH (cytotoxicity and tissue damage marker) ([2]; 100 mg/kg, P=0.067): 30%
reduction of TNF-a ([2]; 100 mg/kg, P=0.069): 65%
reduction of total nitrite and nitrate ([2]; 100 mg/kg, P=0.1): 40%
neutrophil infiltration ([2]; gavage 33 or 100 mg/kg, 20 h): did not affect
fraction of gamma-T converted to gamma-CEHC [8]: ≤ 50%

Continued, molecule first:

Molecule: CC(=O)Oc1ccccc1C(=O)O [aspirin, Acetylsalicylic acid]
neutrophil infiltration ([4]; doses of 100-150 mg/kg): did not affect
reduction of PGE2 ([4]; doses of 100-150 mg/kg): 50-70%
cell infiltration ([4]; higher doses, >200-300 mg/kg): inhibits cell infiltration

Molecule: Cc1cc(O)c(C)c2c1O[C@](C)(CCC[C@H](C)CCC[C@H](C)CCCC(C)C)CC2 [beta-T, beta-tocopherol, reference compound]
inhibitory effect on PGE2 [1]: weak to no inhibitory effect

Molecule: CC(C)=CCC/C(C)=C/CC/C(C)=C/CC[C@]1(C)CCc2cc(O)c(C)c(C)c2O1 [gamma-tocotrienol]
IC50 [1]: 1 to 2.5 µM

Molecule: alpha-tocotrienol [reference compound]
inhibitory effect on PGE2 [1]: weak to no inhibitory effect
